These are literature values, as cited in patent US7176199B2, “Aryl-substituted alicyclic compound and medical composition comprising the same” (Dainippon Pharmaceutical Co., Ltd., priority 2001, dated 2007).

In one data set the target is αvβ3 integrin (Homo sapiens, UniProt P05106+P06756). Conditions: reported in WO 99/52872; read-out: αvβ3 integrin inhibitory activity IC50 value; cited from earlier work.
The next data set has as its target GPIIb/IIIa (Homo sapiens, UniProt P05106+P08514). As to conditions: reported in WO 99/52872; read-out: GPIIb/IIIa inhibitory activity IC50 value; cited from earlier work.

Sequence of αvβ3 integrin (P06756 31-889 limits assumed): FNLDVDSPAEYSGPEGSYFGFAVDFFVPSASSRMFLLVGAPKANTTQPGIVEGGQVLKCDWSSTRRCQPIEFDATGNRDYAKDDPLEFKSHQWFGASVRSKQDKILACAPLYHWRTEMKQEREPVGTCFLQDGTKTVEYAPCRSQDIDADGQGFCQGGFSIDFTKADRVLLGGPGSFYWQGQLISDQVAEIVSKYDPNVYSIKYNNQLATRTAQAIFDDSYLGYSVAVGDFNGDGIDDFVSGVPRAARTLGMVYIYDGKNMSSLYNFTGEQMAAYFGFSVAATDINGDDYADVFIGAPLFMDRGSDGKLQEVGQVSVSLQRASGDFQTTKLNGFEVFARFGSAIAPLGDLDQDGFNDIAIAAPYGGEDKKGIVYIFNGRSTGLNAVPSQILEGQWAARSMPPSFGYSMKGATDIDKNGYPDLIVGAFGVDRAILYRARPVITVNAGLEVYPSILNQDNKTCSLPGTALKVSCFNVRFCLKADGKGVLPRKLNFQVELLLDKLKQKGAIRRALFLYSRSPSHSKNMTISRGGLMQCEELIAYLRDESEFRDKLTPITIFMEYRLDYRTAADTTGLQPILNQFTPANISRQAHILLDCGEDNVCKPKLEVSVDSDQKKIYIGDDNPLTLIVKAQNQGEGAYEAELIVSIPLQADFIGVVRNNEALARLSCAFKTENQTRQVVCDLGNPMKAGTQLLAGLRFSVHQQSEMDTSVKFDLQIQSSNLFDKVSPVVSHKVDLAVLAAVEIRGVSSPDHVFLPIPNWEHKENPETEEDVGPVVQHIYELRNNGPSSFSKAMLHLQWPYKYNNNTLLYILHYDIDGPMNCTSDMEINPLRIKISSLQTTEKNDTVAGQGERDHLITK
Sequence of αvβ3 integrin (P06756 891-1048 partner limits assumed): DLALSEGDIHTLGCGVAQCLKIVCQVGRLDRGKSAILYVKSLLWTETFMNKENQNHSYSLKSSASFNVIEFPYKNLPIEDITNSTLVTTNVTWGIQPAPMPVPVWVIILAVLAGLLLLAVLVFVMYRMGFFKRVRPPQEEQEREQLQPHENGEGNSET
Sequence of αvβ3 integrin (P05106 27-788): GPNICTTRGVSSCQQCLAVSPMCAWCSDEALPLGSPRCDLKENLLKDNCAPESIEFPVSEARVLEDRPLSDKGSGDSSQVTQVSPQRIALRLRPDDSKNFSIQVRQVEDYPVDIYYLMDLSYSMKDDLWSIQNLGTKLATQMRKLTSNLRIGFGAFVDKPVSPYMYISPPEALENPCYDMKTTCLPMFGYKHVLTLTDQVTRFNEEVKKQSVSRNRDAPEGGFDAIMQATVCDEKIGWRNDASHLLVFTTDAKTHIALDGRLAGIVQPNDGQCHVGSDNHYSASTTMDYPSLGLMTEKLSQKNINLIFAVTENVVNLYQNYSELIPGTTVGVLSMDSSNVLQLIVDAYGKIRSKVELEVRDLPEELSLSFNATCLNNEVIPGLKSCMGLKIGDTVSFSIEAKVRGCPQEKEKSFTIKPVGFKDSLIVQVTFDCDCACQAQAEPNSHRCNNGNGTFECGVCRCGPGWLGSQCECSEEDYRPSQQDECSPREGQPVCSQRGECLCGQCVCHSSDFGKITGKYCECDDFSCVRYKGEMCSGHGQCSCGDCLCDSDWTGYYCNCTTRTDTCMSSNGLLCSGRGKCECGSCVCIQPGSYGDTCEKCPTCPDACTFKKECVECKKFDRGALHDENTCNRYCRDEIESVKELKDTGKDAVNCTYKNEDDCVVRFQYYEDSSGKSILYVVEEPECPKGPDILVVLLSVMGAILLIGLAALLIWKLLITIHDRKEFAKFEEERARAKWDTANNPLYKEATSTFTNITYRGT
Sequence of GPIIb/IIIa (P08514 32-887 limits assumed): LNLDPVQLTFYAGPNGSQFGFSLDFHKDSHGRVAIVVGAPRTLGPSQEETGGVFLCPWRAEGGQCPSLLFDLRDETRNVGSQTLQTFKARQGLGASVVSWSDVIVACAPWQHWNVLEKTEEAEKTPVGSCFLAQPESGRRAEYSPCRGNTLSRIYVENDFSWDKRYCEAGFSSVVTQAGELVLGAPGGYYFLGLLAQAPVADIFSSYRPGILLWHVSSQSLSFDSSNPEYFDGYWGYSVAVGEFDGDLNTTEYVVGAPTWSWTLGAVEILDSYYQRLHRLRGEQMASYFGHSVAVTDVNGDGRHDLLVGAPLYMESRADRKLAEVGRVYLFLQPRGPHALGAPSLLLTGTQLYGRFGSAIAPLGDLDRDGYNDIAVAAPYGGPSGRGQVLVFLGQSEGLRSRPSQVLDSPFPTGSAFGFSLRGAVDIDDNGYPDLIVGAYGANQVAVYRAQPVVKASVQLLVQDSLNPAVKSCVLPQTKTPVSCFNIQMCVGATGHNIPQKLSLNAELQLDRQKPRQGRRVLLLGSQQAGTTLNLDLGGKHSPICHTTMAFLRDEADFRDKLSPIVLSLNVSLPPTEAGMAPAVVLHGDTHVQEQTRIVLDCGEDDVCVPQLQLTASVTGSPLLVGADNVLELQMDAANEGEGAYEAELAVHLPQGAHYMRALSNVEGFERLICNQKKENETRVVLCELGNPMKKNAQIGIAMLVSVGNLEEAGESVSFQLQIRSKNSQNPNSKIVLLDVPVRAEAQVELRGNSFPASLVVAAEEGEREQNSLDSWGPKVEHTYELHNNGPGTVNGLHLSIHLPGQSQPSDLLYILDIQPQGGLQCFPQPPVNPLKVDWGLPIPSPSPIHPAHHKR
Sequence of GPIIb/IIIa (P08514 891-1039 partner limits assumed): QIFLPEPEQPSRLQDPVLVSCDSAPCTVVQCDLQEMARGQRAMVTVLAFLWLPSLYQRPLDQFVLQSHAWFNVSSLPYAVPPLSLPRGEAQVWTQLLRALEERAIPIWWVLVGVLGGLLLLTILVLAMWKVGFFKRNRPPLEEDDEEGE
Sequence of GPIIb/IIIa (P05106 27-788): as the sequence (P05106 27-788) above

Take `O=C(NC[C@H](NS(=O)(=O)c1ccccc1)C(=O)O)c1ccc(N2CCC(NC3=NCCCN3)CC2)c(F)c1` [Example A-2, (2S)-2-benzenesulfonylamino-3-[3-fluoro-4-[[4-(1,4,5,6-tetrahydropyrimidin-2-yl)amino]-piperidin-1-yl]benzoylamino]propanoic acid]: the IC50 at αvβ3 integrin and on GPIIb/IIIa was at most 1 nM in each case.
